Laboratory results: ChEMBL document CHEMBL1139676, “Anti-atherosclerotic and anti-inflammatory activities of catecholic xanthones and flavonoids isolated from Cudrania tricuspidata” (Bioorg Med Chem Lett, 2006)
Values belong to the compound of their own block, whether it stands above or below them. Active and inactive are the calls of the source. The calls are words filed in the database; no cut-off is given here.

Experiments:
Plasma = experiment: Antioxidant activity against human plasma LDL oxidation by TBARS assay; format: functional, cell-free
[1] = molecular target: T1, Sterol O-acyltransferase 2 (Homo sapiens, UniProt O75908); experiment: Inhibition of human ACAT2 expressed in Hi5 cells; parameters: species or system BTI-TN-5B1-4
T1 sequence (O75908 whole entry): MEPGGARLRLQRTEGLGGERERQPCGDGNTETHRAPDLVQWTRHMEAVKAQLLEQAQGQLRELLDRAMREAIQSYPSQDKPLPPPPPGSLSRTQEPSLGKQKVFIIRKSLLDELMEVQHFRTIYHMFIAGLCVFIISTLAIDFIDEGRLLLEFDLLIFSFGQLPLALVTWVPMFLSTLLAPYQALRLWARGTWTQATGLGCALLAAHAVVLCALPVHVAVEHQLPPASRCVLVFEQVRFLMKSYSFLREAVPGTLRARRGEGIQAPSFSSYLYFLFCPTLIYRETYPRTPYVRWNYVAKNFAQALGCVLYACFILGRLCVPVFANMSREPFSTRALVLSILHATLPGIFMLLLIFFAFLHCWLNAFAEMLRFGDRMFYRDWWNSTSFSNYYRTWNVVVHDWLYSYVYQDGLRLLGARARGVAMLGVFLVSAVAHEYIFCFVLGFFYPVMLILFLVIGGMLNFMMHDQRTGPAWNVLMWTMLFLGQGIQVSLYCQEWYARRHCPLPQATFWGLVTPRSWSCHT

[2] = molecular target: T2, Sterol O-acyltransferase 1 (Homo sapiens) (UniProt P35610); experiment: (§1) Inhibition of human ACAT1 expressed in Hi5 cells; conditions: BTI-TN-5B1-4
T2 sequence (whole entry): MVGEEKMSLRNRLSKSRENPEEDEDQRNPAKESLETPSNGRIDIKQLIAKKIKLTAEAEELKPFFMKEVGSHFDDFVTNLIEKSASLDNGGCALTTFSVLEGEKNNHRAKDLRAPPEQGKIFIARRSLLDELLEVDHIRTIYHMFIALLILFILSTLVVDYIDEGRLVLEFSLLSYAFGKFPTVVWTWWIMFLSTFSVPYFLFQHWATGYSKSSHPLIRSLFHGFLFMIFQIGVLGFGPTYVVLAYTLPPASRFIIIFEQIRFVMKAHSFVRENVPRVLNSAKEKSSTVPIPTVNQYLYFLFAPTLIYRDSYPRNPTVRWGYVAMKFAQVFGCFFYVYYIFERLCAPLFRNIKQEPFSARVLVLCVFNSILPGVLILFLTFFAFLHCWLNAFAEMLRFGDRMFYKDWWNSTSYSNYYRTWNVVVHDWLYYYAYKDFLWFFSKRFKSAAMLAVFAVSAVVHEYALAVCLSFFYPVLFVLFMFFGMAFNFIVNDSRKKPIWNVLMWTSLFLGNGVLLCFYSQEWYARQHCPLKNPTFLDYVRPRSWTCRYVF

RAW [3] = experiment: Inhibition of LPS-induced NO production in mouse RAW 264.7 cells after 18 hrs; format: functional, cell-based
RAW [4] = experiment: Effect on cell viability in mouse RAW 264.7 cells at 50 uM by MTT method; format: functional, cell-based
RAW [5] = experiment: Inhibition of LPS-induced iNOS protein expression in mouse RAW 264.7 cells at 10 uM; format: functional, cell-based
RAW [6] = experiment: Inhibition of LPS-induced iNOS protein expression in mouse RAW 264.7 cells at 20 uM; format: functional, cell-based
RAW [7] = experiment: Inhibition of LPS-induced NO production in mouse RAW 264.7 cells at 50 uM after 18 hrs; format: functional, cell-based
RAW [8] = experiment: Inhibition of LPS-induced iNOS protein expression in mouse RAW 264.7 cells at 50 uM; format: functional, cell-based
RAW [9] = experiment: Inhibition of LPS-induced iNOS protein expression in mouse RAW 264.7 cells at 5 uM; format: functional, cell-based
RAW [10] = experiment: Effect on cell viability in mouse RAW 264.7 cells at 80 uM by MTT method; format: functional, cell-based
[11] = molecular target: T3, Sterol O-acyltransferase 1 (Homo sapiens, UniProt P35610); experiment: as §1; parameters: species or system BTI-TN-5B1-4
T3 sequence (P35610 whole entry): T2 sequence (whole entry)

SMILES: CC1(C)C=Cc2c(cc3oc(-c4ccc(O)cc4O)cc(=O)c3c2O)O1
Activity [2]: inactive
IC50 [1]: 77.6 µM

SMILES: CC(C)(O)CCc1c(O)cc(O)c2c1O[C@H](c1cc3c(cc1O)OC(C)(C)C=C3)CC2=O
Activity (RAW [3]): Active
Activity (RAW [4]): inactive
Activity (RAW [5]): Active
Activity (RAW [6]): Active
Activity (RAW [7]): Active
Activity (RAW [8]): Active
Activity (RAW [9]): Active
IC50 [1]: 44.8 µM

SMILES: CC(C)=CCc1cc([C@@H]2CC(=O)c3c(cc(O)c(CC=C(C)C)c3O)O2)c(O)cc1O
Activity (RAW [3]): Active
Activity (RAW [5]): Active
Activity (RAW [10]): inactive
Activity (RAW [6]): Active
Activity [2]: inactive
Activity (RAW [7]): Active
Activity (RAW [8]): Active
Activity (RAW [9]): Active
IC50 [1]: 89.6 µM

SMILES: CC(C)=CCc1c(O)cc2c(c1O)C(=O)C[C@@H](c1cc3c(cc1O)OC(C)(C)C=C3)O2 [CUDRAFLAVANONE A]
IC50 [1]: 24.8 µM

SMILES: C=CC(C)(C)c1c(O)cc(O)c2c(=O)c3cc(O)c4c(c3oc12)C=CC(C)(C)O4
IC50 [11]: 40 µM
IC50 [1]: 28.8 µM

Now from value to compound, other results behind:

IC50 [1]: 19.2 µM
SMILES: C=CC(C)(C)c1c(O)cc(O)c2c(=O)c3c(CC=C(C)C)c(OC)c(O)cc3oc12 [CUDRAXANTHONE C]
Activity (Plasma): inactive

IC50 [1]: 75.2 µM
SMILES: C=CC(C)(C)c1c(OC)cc(O)c2c(=O)c3c(CC=C(C)C)c(O)c(O)cc3oc12 [CUDRAXANTHONE D]

IC50 [1]: 23.2 µM
SMILES: CC(C)=CCc1c(O)c(O)cc2c(=O)c3c(O)c4c(cc3oc12)OC(C)C4(C)C (configuration not stated) [CUDRAXANTHONE M]

IC50 [1]: 112 µM
SMILES: C=CC(C)(C)c1c(O)c(CC=C(C)C)c2oc3cc(O)c(O)cc3c(=O)c2c1O [MACLURAXANTHONE B]

IC50 [1]: 133 µM
SMILES: C=CC(C)(C)c1c(OC)cc(O)c2c(=O)c3ccc(O)c(O)c3oc12 [ISOCUDRANIAXANTHONE B]

Activity [2]: inactive
IC50 [1]: 41.6 µM
SMILES: CC(C)=CCc1c(-c2ccc(O)cc2O)oc2cc3c(c(O)c2c1=O)C=CC(C)(C)O3 [CUDRAFLAVONE B]
Activity (RAW [3]): Dose-dependent effect
Activity (RAW [5]): Active
Activity (RAW [10]): inactive
Activity (RAW [6]): Active
Activity (RAW [8]): Active
Activity (RAW [9]): Active

IC50 [1]: 74.4 µM
SMILES: C=CC(C)(C)c1c(O)cc2oc3c(CC=C(C)C)c(O)c(O)cc3c(=O)c2c1O [CUDRAXANTHONE L]
